Source: patent US20230357320A1, “HELICAL STAPLED PEPTIDES AND USES THEREOF” (FOG PHARMACEUTICALS, INC., priority 2020, published 2023)
Starred links: 1 amine or outer side, 2 acyl side, 3 side chain; linkers in the order of their positions; H or OH if unused. Positions of bridges follow the written chain, without caps; N, C: chain ends. Non-standard residues stand in square brackets, D forms with d. Residues, ends and D or L forms follow the SMILES beside them. X1 = O=C([C@]1(CC=[*:3])CCCN1[*:1])[*:2]; αAllylPro = C=CC[C@@]1(C(=O)O)CCCN1; S5 = C=CCCC[C@](C)(N)C(=O)O

Experiments:
ERβ LBD = molecular target: T1, ERβ LBD (Homo sapiens, UniProt Q92731); assay: Competition fluorescence polarization (FP) binding assay with FITC-ERL4 probe; settings: Table 4; binding to ER LBD; estradiol 1 μM, FITC-ERL4 10 nM, ERβ LBD 200 nM; mean ± S.E.M, at least four replicates; read-out: EC50
T1 construct: pET28a+ vector containing ERβ LBD (residues from 261 to 500) along with an N-terminal His6-yBBr-TEV tag; His6 (N); yBBr (N); TEV cleavage site (N); made in house; host or cells: E. coli BL21(DE3) pLysS
Procedure: In addition to the PAMPA assay, to study the affinity of the first-generation ProLock™ stapled peptides to the Estrogen receptor p ligand-binding domain (ERβ LBD), a fluorescence polarization (FP) binding assay in competition format was used in the presence of the endogenous ERβ LBD ligand estradiol. Competition Fluorescence Polarization (FP) assay was performed on the peptides to determine their half-maximal effective concentration (EC50). To do this, FITC labeled ERL4 peptide (FITC-βAla-His-Pro-Leu-Leu-Nle-Arg-Leu-Leu-Leu-Ser-Pro-CONH2) was synthesized to be used as a fluorescence probe based on existing literature (Fuchs et al., Journal of the American Chemical Society 2013, 135 (11), 4364-4371). Direct FP was performed in black 384-well plates (Corning). The final volume of each assay well was 40 μL with constant concentration of FITC labeled ERL4 peptide (10 nM) and variable concentrations of ERβ LBD protein.
ERβ LBD expression and purification was performed as follows. BL21(DE3) pLysS E. coli cells were transformed with a pET28a+ vector containing ERβ LBD (residues from 261 to 500) along with an N-terminal His6-yBBr-TEV tag. An overnight culture in 10 mL of TB media containing 50 μg/mL kanamycin was prepared from a single bacterial colony. The overnight culture was subsequently added to 1 liter of autoclaved TB media containing 50 μg/mL kanamycin and shaken at 37° C. until an OD of 0.6-0.8 was reached. IPTG was added to the culture and left shaking for 6 hours. Bacterial culture was pelleted and resuspended in lysis buffer. Resuspended bacterial culture was incubated at 0° C. for 10 minutes before sonication at 65% amplitude with 10-sec cycles using a Branson Sonifier. The lysate was then cleared by centrifugation at 8000×g for 20 min. […] The expected molecular weight of the ERβ LBD protein is 30.8 KDa, which molecular weight was confirmed by SDS PAGE analysis. Purified ERβ LBD was concentrated to 90 μM and was stored at −80° C. buffer.
Competition FP assays were also employed. These were performed in black 384-well plates (Corning). The final volume of each assay well was 80 μL containing constant concentrations of estradiol (1 μM) and FITC labeled ERL4 (10 nM). The ERβ LBD concentration was held constant (200 nM) while varying the concentration of ProLock stapled peptides (3-fold dilution from 10 μM). Upon addition of samples to each well, the plate was centrifuged for 10 seconds at 3000 rpm and incubated at 4° C. for 1 hour. FP measurements were performed at room temperature with excitation and emission wavelengths at 485 and 535 nm using a Clariostar microplate reader (BMG Labtech). Each plate had high and low polarization samples, which are used to normalize the assay data. The competition FP results were analyzed by Prism 7 (GraphPad). The non-linear regression analysis of the data was used to determine the half-maximal effective concentration (EC50) of ProLock stapled peptides. […] The normalized FP values shown in FIG. 6 are mean±S.E.M of at least four independent replicates.

[1] = for % Retention: PAMPA
Procedure: (§1) The synthesized peptides were first analyzed with a PAMPA assay. […] The PAMPA plate system is composed of two compartments, donor and acceptor, which are separated by a phospholipid-infused membrane. The amount of compound transferred from the acceptor well into the donor well over a period of incubation time is used to determine the passive permeability of a compound.
(§2) The two plates are separated by a membrane infused with phospholipids. […] The amount of compound transferred from one well to the other is usually quantified by reverse-phase HPLC-mass spectrometry.
(§3) Briefly, all PAMPA assays were performed using the commercially available PAMPA plate system from Corning, which uses a proprietary membrane composed of structured phospholipids. […] To prevent nonspecific peptide loss to the plates, the acceptor wells of the Corning PAMPA plates were blocked overnight with 5% nonfat milk with 0.1% Triton X-100 in Dulbecco's phosphate buffer saline (DPBS) at pH=7.4, followed by extensive washing prior to assays. The donor wells and membrane itself were not exposed to the milk/Triton solution. […] The PAMPA experiments described herein were performed using plates from Corning Lot #9112010, Lot #9112011 and Lot #7317005 (Corning Inc., Corning, New York, USA).
(§4) To set up PAMPA assays, the PAMPA plate system was equilibrated at room temperature for at least an hour before setting up the assay. The acceptor plate preincubated with milk blocking solution was washed with water, followed by DPBS buffer. 300 μL of 5% DMSO in DPBS at pH=7.4 was added to the pre-blocked acceptor plate, and 200 μL of 10M compounds made with 5% DMSO in DPBS at pH=7.4 was added to the donor plate. The donor plate with a lid was then carefully inserted into the acceptor plate with no bubbles formed at the interface of donor and acceptor plates. The PAMPA assay plate was covered with aluminum foil and placed in a 37° C. incubator for 5 hours. 10 M input solution of all compounds was diluted 20-fold to a final acetonitrile concentration of 50% before analyzing by reverse-phase HPLC and Q-Exactive plus mass spectrometer. At the end of 5 hours, PAMPA donor and acceptor plates were separated and diluted 20-fold and 2-fold respectively to a final acetonitrile concentration of 50%. The diluted solutions of PAMPA donor and acceptor plates were analyzed by reverse-phase HPLC and Q-Exactive plus mass spectrometer.
(§5) Pe measures the passive permeability of each compound tested in the PAMPA assay, whereas % retention measures the amount of compound retained in solution at the end of the assay compared to the input sample.

in vitro = assay: in vitro; set-up: dose or concentration left out as unconfirmed; settings: PAMPA, pH 7.4, PAMPA Pe
Procedure: as §1, §2, §3, §4, §5

[2] = CHI Log D measurement (chromatographic hydrophobicity index); settings: pH 7.4
Procedure: Finally, to measure hydrophobicity, a CHI Log D measurement assay was employed. […] The retention time measurements were performed using reverse-phase HPLC and Q-Exactive mass spectrometer with Phenomenex Gemini C-18 column (3 uM, 50×3 mm). The reverse-phase chromatography was performed using a gradient of 10 mM ammonium acetate at pH=7.4 and acetonitrile solvents. Using the identical solvent setup, gradient, and flowrate, ProLock stapled peptides were injected onto the column to determine the tR of peptides. Using the calibration curve shown in FIG. 7, tR is converted into CHI. CHI was converted into CHI Log D using the following equation.

[3] = reverse-phase HPLC, Phenomenex Gemini C-18 column
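Wherever % Retention is given: Phospholipid-membrane PAMPA, donor and acceptor in DPBS pH 7.4 with 5% DMSO, 37 °C for 5 h, compound in each well quantified by reverse-phase HPLC-MS.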
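Wherever PAMPA Pe (text) is given: Phospholipid-membrane PAMPA, donor and acceptor in DPBS pH 7.4 with 5% DMSO, 37 °C for 5 h, compound in each well quantified by reverse-phase HPLC-MS.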
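Wherever Papp is given: Phospholipid-membrane PAMPA, donor and acceptor in DPBS pH 7.4 with 5% DMSO, 37 °C for 5 h, compound in each well quantified by reverse-phase HPLC-MS.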

| SMILES | EC50 (ERβ LBD) | % Retention [1] | Papp at 5 h (in vitro) | chromatographic logD [2, 3] | chromatographic logD [2] | logD [2] | PAMPA Pe (text) [1] |
| --- | --- | --- | --- | --- | --- | --- | --- |
| CC[C@H](C)[C@@H]1NC(=O)[C@]2(CC=CCCC[C@@](C)(C(=O)N[C@@H](Cc3ccc(O)cc3)C(=O)N[C@@H](CC(C)C)C(=O)N[C@@H](CC(C)C)C(=O)N[C@@H](CC(=O)O)C(=O)NC)NC(=O)[C@H](CC(C)C)NC1=O)CCCN2C(C)=O [PLL5-4, Ac-PL3-Ile-Leu-S5-Tyr-Leu-Leu-Asp-NHMe] (Ac-[X1]IL[S5]YLLD-NHMe; staple 1-4) | 1.3 ± 0.1 µM | 100 ± 1% | 0.3 ± 0.1 ×10⁻⁶ cm/s | 2.4 | – | – | – |
| CNC(=O)[C@H](CC(=O)O)NC(=O)[C@H](CC(C)C)NC(=O)[C@H](CC(C)C)NC(=O)[C@H](CCCNC(=N)N)NC(=O)[C@]1(C)CCCC=CC[C@]2(CCCN2C(C)=O)C(=O)N[C@@H](CC(C)C)C(=O)N[C@@H](CC(C)C)C(=O)N1 [PLL5-8, Ac-PL3-Leu-Leu-S5-Arg-Leu-Leu-Asp-NHMe] (Ac-[X1]LL[S5]RLLD-NHMe; staple 1-4) | 7.9 ± 0.4 µM | 104 ± 3% | 0.9 ± 0.2 ×10⁻⁶ cm/s | 2.1 | – | – | – |
| CNC(=O)[C@H](Cc1ccc(O)cc1)NC(=O)[C@H](CCC(N)=O)NC(=O)[C@H](CC(C)C)NC(=O)[C@H](CC(C)C)NC(=O)[C@H](Cc1ccc(O)cc1)NC(=O)[C@]1(C)CCCC=CC[C@]2(CCCN2C(C)=O)C(=O)N[C@@H](CC(C)C)C(=O)N[C@@H](CC(C)C)C(=O)N1 [PLL5-3, Ac-PL3-Leu-Leu-S5-Tyr-Leu-Leu-Gln-Tyr-NHMe] (Ac-[X1]LL[S5]YLLQY-NHMe; staple 1-4) | – | 83 ± 1% | ≤ 0.1 ×10⁻⁶ cm/s | 3.5 | – | – | – |
| CNC(=O)[C@H](CC(=O)O)NC(=O)[C@H](CC(C)C)NC(=O)[C@H](CC(C)C)NC(=O)[C@H](Cc1ccc(O)cc1)NC(=O)[C@]1(C)CCCC=CC[C@]2(CCCN2)C(=O)N[C@@H](CC(C)C)C(=O)N[C@@H](CC(C)C)C(=O)N1 (single isomer, unassigned) [PLL4-10 variant 1, H-PL3-Leu-Leu-S5-Tyr-Leu-Leu-Asp-NHMe] | – | 66 ± 2% | 0.3 ± 0.1 ×10⁻⁶ cm/s | – | 2.2 | – | – |
| C=CCCC[C@](C)(NC(=O)[C@H](CC(C)C)NC(=O)[C@H](CC(C)C)NC(=O)[C@]1(CC=C)CCCN1C(C)=O)C(=O)N[C@@H](CCCNC(=N)N)C(=O)N[C@@H](CC(C)C)C(=O)N[C@@H](CC(C)C)C(=O)N[C@@H](Cc1c[nH]cn1)C(=O)N[C@@H](CC(=O)O)C(=O)NC [PLL7-9 variant 5, Ac-PL3-Leu-Leu-S5-Arg-Leu-Leu-His-Asp-NHMe] (Ac-[αAllylPro]LL[S5]RLLHD-NHMe) | – | 91 ± 2% | 0.5 ± 0.1 ×10⁻⁶ cm/s | – | 2.5 | – | – |
| CNC(=O)[C@H](Cc1ccc(O)cc1)NC(=O)[C@@H](NC(=O)[C@H](CC(C)C)NC(=O)[C@H](CC(C)C)NC(=O)[C@H](CC(N)=O)NC(=O)[C@]1(C)CCCC=CCCC[C@](C)(NC(C)=O)C(=O)N[C@@H](C)C(=O)N[C@@H](CCCCN)C(=O)N[C@@H](CC(C)C)C(=O)N1)[C@@H](C)O [PLL4-5 variant 4, Ac-S5-Ala-Lys-Leu-S5-Asn-Leu-Leu-Thr-Tyr-NHMe] (Ac-[S5]AKL[S5]NLLTY-NHMe; staple 1-5) | – | 79 ± 3% | ≤ 0.1 ×10⁻⁶ cm/s | – | 2.2 | – | – |
| CNC(=O)[C@H](CC(=O)O)NC(=O)[C@H](Cc1c[nH]cn1)NC(=O)[C@H](CC(C)C)NC(=O)[C@H](CC(C)C)NC(=O)[C@H](CCCNC(=N)N)NC(=O)[C@]1(C)CCCC=CCCC[C@](C)(NC(C)=O)C(=O)N[C@@H](C)C(=O)N[C@@H](CC(C)C)C(=O)N[C@@H](CC(C)C)C(=O)N1 [PLL7-9 variant 4, Ac-S5-Ala-Leu-Leu-S5-Arg-Leu-Leu-His-Asp-NHMe] (Ac-[S5]ALL[S5]RLLHD-NHMe; staple 1-5) | – | 101 ± 24% | ≤ 0.1 ×10⁻⁶ cm/s | – | 2.7 | – | – |
| CNC(=O)[C@H](CC(=O)O)NC(=O)[C@H](CCC(N)=O)NC(=O)[C@H](CC(C)C)NC(=O)[C@H](CC(C)C)NC(=O)[C@H](Cc1ccc(O)cc1)NC(=O)[C@]1(C)CCCC=CC[C@]2(CCCN2C(C)=O)C(=O)O[C@@H](CC(C)C)C(=O)N[C@@H](CC(C)C)C(=O)N1 (single isomer, unassigned) [PLL7-7 variant 2, Ac-PL3-Lec-Leu-S5-Tyr-Leu-Leu-Gln-Asp-NHMe] | – | 64 ± 1% | ≤ 0.1 ×10⁻⁶ cm/s | – | 2.6 | – | – |
| CC(=O)N1CCC[C@]12CC=CCCC[C@@](C)(C(=O)N[C@@H](CCCNC(=N)N)C(=O)N[C@@H](CC(C)C)C(=O)N[C@@H](CC(C)C)C(=O)N[C@@H](Cc1c[nH]cn1)C(=O)N[C@@H](CC(=O)O)C(N)=O)NC(=O)[C@H](CC(C)C)NC(=O)[C@H](CC(C)C)NC2=O (single isomer, unassigned) [PLL7-9 variant 3, Ac-PL3-Leu-Leu-S5-Arg-Leu-Leu-His-Asp-NH2] | – | 98 ± 10% | 0.5 ± 0.1 ×10⁻⁶ cm/s | – | 1.9 | – | – |
| C=CCCC[C@](C)(NC(=O)[C@H](CC(C)C)NC(=O)[C@H](CCCCN)NC(=O)[C@]1(CC=C)CCCN1C(C)=O)C(=O)N[C@@H](CC(N)=O)C(=O)N[C@@H](CC(C)C)C(=O)N[C@@H](CC(C)C)C(=O)N[C@H](C(=O)N[C@@H](Cc1ccc(O)cc1)C(=O)NC)[C@@H](C)O [PLL4-5 variant 5, Ac-PL3-Lys-Leu-S5-Asn-Leu-Leu-Thr-Tyr-NHMe] (Ac-[αAllylPro]KL[S5]NLLTY-NHMe) | – | 73 ± 4% | ≤ 0.1 ×10⁻⁶ cm/s | – | 2.3 | – | – |
| CNC(=O)[C@H](CC(=O)O)NC(=O)[C@H](CC(=O)O)NC(=O)[C@H](CC(C)C)NC(=O)[C@H](CC(C)C)NC(=O)[C@H](Cc1ccc(O)cc1)NC(=O)[C@]1(C)CCCC=CC[C@]2(CCCN2C(C)=O)C(=O)O[C@@H](CC(C)C)C(=O)N[C@@H](CC(C)C)C(=O)N1 (single isomer, unassigned) [PLL5-2 variant 2, Ac-PL3-Lec-Leu-S5-Tyr-Leu-Leu-Asp-Asp-NHMe] | – | 47 ± 6% | ≤ 0.1 ×10⁻⁶ cm/s | – | – | 1.9 | – |
| C=CCCC[C@](C)(NC(=O)[C@H](CC(C)C)NC(=O)[C@H](CC(C)C)NC(=O)[C@]1(CC=C)CCCN1C(C)=O)C(=O)N[C@@H](Cc1ccc(O)cc1)C(=O)N[C@@H](CC(C)C)C(=O)N[C@@H](CC(C)C)C(=O)N[C@@H](CC(=O)O)C(=O)NC [PLL4-10 variant 5, Ac-PL3-Leu-Leu-S5-Tyr-Leu-Leu-Asp-NHMe] (Ac-[αAllylPro]LL[S5]YLLD-NHMe) | – | 70 ± 2% | 0.2 ± 0.1 ×10⁻⁶ cm/s | – | 2.8 | – | – |
| CNC(=O)[C@H](Cc1ccc(O)cc1)NC(=O)[C@H](CC(=O)O)NC(=O)[C@H](CC(C)C)NC(=O)[C@H](CC(C)C)NC(=O)[C@H](Cc1ccc(O)cc1)NC(=O)[C@]1(C)CCCC=CC[C@]2(CCCN2C(C)=O)C(=O)N[C@@H](CC(C)C)C(=O)N[C@@H](CC(C)C)C(=O)N1 [PLL5-1, Ac-PL3-Leu-Leu-S5-Tyr-Leu-Leu-Asp-Tyr-NHMe] (Ac-[X1]LL[S5]YLLDY-NHMe; staple 1-4) | – | 36 ± 1% | ≤ 0.1 ×10⁻⁶ cm/s | 2.4 | – | – | – |
| C=CCCC[C@](C)(NC(=O)[C@H](CC(C)C)NC(=O)[C@H](CC(C)C)NC(=O)[C@]1(CC=C)CCCN1C(C)=O)C(=O)N[C@@H](Cc1ccc(O)cc1)C(=O)N[C@@H](CC(C)C)C(=O)N[C@@H](CC(C)C)C(=O)N[C@@H](CC(=O)O)C(=O)N[C@@H](CC(=O)O)C(=O)NC [PLL5-2 variant 5, Ac-PL3-Leu-Leu-S5-Tyr-Leu-Leu-Asp-Asp-NHMe] (Ac-[αAllylPro]LL[S5]YLLDD-NHMe) | – | 90 ± 3% | 1.7 ± 0.4 ×10⁻⁶ cm/s | – | 1.8 | – | 1.7 ×10⁻⁶ cm/s |
